Measurements taken from patent US8802849B2, “Tricyclic benzo[4,5]thieno-[2,3-d]pyrimidine-4-yl-amin derivatives, their salts, process for producing the compounds and their pharmaceutical use” (Vichem Chemie Kutató Kft., priority 2008, dated 2014).

What was measured:
[1] = molecular target: CK1-alpha (Homo sapiens, UniProt P48729); assay: CK1-alpha kinase assay; format: biochemical; conditions: 10 μM compound; read-out: CK1-alpha percent of inhibition
How it was run: (§1)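 Cpd 10 μM final (from 10 mM DMSO stock); ATP = KmATP + 12.5 μCi/ml γ-33P-ATP; substrate 5× Km; enzyme titrated to 10% ATP turnover; 1 h RT; EDTA quench; MAPH filtration, scintillation count.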

[2] = molecular target: P70S6K (Homo sapiens, UniProt P23443); assay: P70S6K kinase assay; format: biochemical; conditions: 10 μM compound; read-out: P70S6K percent of inhibition
P70S6K, sequence (P23443 whole entry): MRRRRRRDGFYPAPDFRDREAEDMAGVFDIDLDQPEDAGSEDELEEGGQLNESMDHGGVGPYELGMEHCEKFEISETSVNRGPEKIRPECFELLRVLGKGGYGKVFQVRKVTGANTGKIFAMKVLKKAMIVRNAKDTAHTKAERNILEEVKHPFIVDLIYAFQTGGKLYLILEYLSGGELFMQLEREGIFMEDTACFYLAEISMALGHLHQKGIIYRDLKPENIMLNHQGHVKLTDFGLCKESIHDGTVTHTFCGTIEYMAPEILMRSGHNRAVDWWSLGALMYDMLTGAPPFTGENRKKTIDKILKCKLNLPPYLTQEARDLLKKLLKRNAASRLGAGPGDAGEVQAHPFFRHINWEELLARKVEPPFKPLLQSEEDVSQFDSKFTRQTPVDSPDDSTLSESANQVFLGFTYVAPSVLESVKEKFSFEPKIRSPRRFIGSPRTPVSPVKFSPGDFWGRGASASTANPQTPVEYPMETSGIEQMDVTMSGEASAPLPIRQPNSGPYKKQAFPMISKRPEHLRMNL
How it was run: as §1

[3] = molecular target: CDK2/CycA (Homo sapiens, UniProt P24941); assay: CDK2/CycA kinase assay; format: biochemical; conditions: 10 μM compound; read-out: CDK2/CycA percent of inhibition
How it was run: as §1

[4] = molecular target: c-Src (Homo sapiens, UniProt P12931); assay: c-Src kinase assay; format: biochemical; conditions: 10 μM compound; read-out: c-Src percent of inhibition
How it was run: as §1

[5] = molecular target: MAPK-ERK1 (Homo sapiens, UniProt P27361); assay: MAPK-ERK1 kinase assay; format: biochemical; conditions: 10 μM compound; read-out: MAPK-ERK1 percent of inhibition
How it was run: as §1

[6] = molecular target: cMet (Homo sapiens, UniProt P08581); assay: cMet kinase assay; format: biochemical; conditions: 10 μM compound; read-out: cMet percent of inhibition
How it was run: as §1

[7] = molecular target: Jnk1a1 (Homo sapiens, UniProt P45983); assay: Jnk1a1 kinase assay; format: biochemical; conditions: 10 μM compound; read-out: Jnk1a1 percent of inhibition
Jnk1a1, sequence (P45983 1-384 isoform P45983-2): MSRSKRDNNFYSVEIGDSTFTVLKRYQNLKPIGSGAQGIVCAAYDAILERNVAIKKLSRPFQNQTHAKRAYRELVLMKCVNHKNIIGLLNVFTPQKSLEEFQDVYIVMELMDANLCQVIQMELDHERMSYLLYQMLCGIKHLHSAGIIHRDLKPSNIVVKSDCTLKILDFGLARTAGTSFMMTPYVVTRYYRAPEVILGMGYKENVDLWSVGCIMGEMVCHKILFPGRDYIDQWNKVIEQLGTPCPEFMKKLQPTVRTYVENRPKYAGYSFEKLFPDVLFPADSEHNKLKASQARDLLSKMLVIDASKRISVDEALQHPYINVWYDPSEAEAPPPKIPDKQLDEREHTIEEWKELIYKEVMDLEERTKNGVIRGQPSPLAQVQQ
How it was run: as §1

[8] = molecular target: P56Lck (Homo sapiens, UniProt P06239); assay: P56Lck kinase assay; format: biochemical; conditions: 10 μM compound; read-out: P56Lck percent of inhibition
How it was run: as §1

[9] = molecular target: c-Raf (Homo sapiens, UniProt P04049); assay: c-Raf kinase assay; format: biochemical; conditions: 10 μM compound; read-out: c-Raf percent of inhibition
How it was run: as §1

[10] = molecular target: Kit (Homo sapiens, UniProt P10721); assay: Kit kinase assay; format: biochemical; conditions: 10 μM compound; read-out: Kit percent of inhibition
Kit, sequence (P10721 26-976, species assumed): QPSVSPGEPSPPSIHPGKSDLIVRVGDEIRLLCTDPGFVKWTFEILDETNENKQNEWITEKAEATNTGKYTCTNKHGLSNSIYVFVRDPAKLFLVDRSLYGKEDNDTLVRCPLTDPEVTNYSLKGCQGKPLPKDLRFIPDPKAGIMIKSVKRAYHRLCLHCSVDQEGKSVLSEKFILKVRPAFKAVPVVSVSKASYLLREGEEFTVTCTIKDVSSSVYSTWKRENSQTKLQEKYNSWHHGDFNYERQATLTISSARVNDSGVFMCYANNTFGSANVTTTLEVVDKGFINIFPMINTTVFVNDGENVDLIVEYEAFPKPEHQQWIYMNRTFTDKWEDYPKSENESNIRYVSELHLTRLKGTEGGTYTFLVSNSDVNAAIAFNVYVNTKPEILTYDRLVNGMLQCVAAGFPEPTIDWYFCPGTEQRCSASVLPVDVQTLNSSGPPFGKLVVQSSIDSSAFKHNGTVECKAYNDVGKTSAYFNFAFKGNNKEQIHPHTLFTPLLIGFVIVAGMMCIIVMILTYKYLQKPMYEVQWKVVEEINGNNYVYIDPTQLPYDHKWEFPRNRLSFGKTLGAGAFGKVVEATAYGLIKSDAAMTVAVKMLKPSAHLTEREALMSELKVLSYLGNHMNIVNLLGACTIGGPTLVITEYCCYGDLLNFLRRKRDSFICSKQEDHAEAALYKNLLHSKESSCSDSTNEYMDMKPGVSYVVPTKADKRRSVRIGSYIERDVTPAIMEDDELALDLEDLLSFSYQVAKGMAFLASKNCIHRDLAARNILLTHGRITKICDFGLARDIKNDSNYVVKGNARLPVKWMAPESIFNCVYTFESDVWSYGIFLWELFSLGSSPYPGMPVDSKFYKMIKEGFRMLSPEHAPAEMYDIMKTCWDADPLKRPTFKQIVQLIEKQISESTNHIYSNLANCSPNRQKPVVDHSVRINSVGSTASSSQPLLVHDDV
How it was run: as §1

[11] = molecular target: AKT1/PKBa (Homo sapiens, UniProt P31749); assay: AKT1/PKBa kinase assay; format: biochemical; conditions: 10 μM compound; read-out: AKT1/PKBa percent of inhibition
AKT1/PKBa, sequence (P31749 whole entry): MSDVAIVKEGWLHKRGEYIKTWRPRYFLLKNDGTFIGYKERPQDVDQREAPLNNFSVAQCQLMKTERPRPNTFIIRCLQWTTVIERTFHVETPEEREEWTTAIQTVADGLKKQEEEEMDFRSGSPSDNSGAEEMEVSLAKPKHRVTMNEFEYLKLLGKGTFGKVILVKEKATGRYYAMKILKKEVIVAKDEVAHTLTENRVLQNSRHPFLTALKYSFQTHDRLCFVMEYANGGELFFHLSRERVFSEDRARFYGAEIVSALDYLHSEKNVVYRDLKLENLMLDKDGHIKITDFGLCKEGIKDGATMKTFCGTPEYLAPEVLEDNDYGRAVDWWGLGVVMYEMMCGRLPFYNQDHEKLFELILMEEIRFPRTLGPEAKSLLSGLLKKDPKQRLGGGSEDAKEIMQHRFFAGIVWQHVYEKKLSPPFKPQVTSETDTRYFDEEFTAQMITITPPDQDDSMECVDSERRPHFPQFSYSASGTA
How it was run: as §1

[12] = molecular target: SRPK1 (Homo sapiens, UniProt Q96SB4); assay: SRPK1 kinase assay; format: biochemical; conditions: 10 μM compound; read-out: SRPK1 percent of inhibition
SRPK1, sequence (Q96SB4 whole entry, species assumed): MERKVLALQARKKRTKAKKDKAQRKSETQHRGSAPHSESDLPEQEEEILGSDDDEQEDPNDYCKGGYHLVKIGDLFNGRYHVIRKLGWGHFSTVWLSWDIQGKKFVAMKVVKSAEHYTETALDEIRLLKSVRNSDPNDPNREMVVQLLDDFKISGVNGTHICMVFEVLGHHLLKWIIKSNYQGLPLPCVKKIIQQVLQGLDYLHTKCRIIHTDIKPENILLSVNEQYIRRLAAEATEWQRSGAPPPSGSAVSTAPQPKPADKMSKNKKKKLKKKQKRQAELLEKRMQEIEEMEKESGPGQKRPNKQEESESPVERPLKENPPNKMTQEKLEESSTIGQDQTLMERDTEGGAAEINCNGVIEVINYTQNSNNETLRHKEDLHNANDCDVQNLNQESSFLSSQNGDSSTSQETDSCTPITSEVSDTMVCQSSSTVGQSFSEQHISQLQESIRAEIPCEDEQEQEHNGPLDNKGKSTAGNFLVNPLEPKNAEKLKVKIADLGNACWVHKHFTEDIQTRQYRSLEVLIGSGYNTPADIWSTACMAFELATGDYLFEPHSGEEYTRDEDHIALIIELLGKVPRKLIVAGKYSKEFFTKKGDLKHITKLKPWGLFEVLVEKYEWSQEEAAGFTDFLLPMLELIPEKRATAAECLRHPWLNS
How it was run: as §1

[13] = molecular target: GSK-3beta (Homo sapiens, UniProt P49841); assay: GSK-3beta kinase assay; format: biochemical; conditions: 10 μM compound; read-out: GSK-3beta percent of inhibition
GSK-3beta, sequence (P49841 whole entry, species assumed): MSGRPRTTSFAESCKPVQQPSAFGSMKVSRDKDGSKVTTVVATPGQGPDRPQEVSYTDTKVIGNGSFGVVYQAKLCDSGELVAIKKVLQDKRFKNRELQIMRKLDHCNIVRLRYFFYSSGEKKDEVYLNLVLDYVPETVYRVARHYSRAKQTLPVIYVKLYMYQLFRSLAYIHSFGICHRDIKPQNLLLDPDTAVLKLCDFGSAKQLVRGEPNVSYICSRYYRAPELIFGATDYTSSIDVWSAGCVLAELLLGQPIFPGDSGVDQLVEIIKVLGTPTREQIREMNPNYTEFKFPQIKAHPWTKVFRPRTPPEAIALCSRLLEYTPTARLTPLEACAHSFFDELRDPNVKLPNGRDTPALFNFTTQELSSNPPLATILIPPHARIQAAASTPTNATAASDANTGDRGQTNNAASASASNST
How it was run: as §1

[14] = molecular target: RSK1 (Homo sapiens, UniProt Q15418); assay: RSK1 kinase assay; format: biochemical; conditions: 10 μM compound; read-out: RSK1 percent of inhibition
How it was run: as §1

[15] = molecular target: InsR (Homo sapiens, UniProt P06213); assay: InsR kinase assay; format: biochemical; conditions: 10 μM compound; read-out: InsR percent of inhibition
How it was run: as §1

[16] = molecular target: T1, IKK-beta (Homo sapiens, UniProt O14920); assay: IKK-beta kinase assay; format: biochemical; conditions: 10 μM compound; read-out: IKK-beta percent of inhibition
T1 sequence (O14920 1-756): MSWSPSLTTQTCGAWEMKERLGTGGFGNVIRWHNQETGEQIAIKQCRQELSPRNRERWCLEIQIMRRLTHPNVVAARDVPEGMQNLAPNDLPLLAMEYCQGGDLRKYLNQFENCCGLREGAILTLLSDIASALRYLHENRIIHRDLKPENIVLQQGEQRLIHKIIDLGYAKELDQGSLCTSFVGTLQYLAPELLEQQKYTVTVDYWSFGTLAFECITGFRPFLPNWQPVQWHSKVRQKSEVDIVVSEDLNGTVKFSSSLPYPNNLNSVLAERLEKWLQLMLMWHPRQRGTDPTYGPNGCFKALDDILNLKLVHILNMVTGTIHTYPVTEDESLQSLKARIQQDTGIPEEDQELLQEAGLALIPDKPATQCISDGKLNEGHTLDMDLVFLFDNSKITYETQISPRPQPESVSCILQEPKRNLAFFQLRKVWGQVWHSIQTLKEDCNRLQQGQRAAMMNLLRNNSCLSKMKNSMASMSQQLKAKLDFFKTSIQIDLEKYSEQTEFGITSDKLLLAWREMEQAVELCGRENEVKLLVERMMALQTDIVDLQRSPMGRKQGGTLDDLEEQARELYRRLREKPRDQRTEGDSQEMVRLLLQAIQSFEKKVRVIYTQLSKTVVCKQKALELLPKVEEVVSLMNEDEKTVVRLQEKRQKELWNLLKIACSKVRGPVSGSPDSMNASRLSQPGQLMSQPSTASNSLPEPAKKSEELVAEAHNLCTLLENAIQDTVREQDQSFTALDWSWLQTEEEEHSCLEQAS
How it was run: as §1

[17] = molecular target: Abl (Homo sapiens, UniProt P00519); assay: Abl kinase assay; format: biochemical; conditions: 10 μM compound; read-out: Abl percent of inhibition
Abl, sequence (P00519 whole entry, species assumed): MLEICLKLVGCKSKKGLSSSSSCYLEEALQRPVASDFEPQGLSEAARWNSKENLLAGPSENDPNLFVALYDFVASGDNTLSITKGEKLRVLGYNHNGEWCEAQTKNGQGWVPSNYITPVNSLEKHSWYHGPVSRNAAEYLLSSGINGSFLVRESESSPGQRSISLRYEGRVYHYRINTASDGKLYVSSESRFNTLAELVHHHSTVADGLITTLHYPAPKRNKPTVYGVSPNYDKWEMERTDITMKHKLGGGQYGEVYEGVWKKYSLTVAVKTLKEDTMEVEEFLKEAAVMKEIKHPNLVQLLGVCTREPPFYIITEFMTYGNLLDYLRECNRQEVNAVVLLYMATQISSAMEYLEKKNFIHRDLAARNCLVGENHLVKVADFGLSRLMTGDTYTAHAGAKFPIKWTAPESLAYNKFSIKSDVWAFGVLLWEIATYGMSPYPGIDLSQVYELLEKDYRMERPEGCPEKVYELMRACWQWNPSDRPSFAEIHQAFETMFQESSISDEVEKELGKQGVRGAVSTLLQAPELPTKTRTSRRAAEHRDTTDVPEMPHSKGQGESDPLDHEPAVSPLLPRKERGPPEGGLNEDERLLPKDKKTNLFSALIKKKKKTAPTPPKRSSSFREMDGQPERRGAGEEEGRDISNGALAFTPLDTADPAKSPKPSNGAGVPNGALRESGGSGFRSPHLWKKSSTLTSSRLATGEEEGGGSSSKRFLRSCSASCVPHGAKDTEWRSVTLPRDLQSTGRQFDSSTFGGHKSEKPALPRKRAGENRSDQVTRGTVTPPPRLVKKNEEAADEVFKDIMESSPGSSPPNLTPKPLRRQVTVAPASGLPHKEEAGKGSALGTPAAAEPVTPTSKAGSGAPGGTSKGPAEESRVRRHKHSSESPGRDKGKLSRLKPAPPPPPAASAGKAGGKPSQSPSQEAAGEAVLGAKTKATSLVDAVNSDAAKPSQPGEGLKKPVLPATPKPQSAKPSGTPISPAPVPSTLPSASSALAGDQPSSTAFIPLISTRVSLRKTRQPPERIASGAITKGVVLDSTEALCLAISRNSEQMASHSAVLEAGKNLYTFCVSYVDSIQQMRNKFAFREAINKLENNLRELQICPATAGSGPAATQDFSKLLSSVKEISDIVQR
How it was run: as §1

[18] = molecular target: EGFR (Homo sapiens, UniProt P00533); assay: EGFR kinase assay (33P-ATP filter plate); format: biochemical; conditions: for inhibition at 10 µM: 10 μM compound, read-out: EGFR percent of inhibition; for IC50: EGFR-PTK assay
How it was run: as §1

[19] = molecular target: PDGFR-beta (Homo sapiens, UniProt P09619); assay: PDGFR-beta kinase assay; format: biochemical; conditions: 10 μM compound; read-out: PDGFR-beta percent of inhibition
How it was run: as §1

[20] = molecular target: ROCK2 (Homo sapiens, UniProt O75116); assay: ROCK2 kinase assay; format: biochemical; conditions: 10 μM compound; read-out: ROCK2 percent of inhibition
How it was run: as §1

CK1-alpha, sequence (P48729 whole entry): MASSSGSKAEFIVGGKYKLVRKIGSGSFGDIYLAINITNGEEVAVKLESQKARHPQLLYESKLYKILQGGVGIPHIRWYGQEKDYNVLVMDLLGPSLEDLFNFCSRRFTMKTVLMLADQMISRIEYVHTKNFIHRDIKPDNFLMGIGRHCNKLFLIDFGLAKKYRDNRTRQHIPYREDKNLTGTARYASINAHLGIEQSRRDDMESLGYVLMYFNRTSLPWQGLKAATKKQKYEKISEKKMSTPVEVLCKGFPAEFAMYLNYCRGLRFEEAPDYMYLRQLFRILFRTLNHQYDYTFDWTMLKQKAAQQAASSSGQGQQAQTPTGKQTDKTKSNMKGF

inhibition at 10 µM [1] [%] | inhibition at 10 µM [2] [%] | inhibition at 10 µM [3] [%] | inhibition at 10 µM [4] [%] | inhibition at 10 µM [5] [%] | inhibition at 10 µM [6] [%] | inhibition at 10 µM [7] [%] | inhibition at 10 µM [8] [%] | inhibition at 10 µM [9] [%] | inhibition at 10 µM [10] [%] | inhibition at 10 µM [11] [%] | inhibition at 10 µM [12] [%] | inhibition at 10 µM [13] [%] | inhibition at 10 µM [14] [%] | inhibition at 10 µM [15] [%] | inhibition at 10 µM [16] [%] | inhibition at 10 µM [17] [%] | inhibition at 10 µM [18] [%] | melting point [°C] | inhibition at 10 µM [19] [%] | also measured | SMILES
7 | -1 | 12 | 7 | 8 | 4 | -10 | 4 | 3 | 6 | 9 | 6 | -3 | -4 | 4 | -5 | -10 | 99 | 160 | 10 | IC50 [18]: 8.08 nM; inhibition at 10 µM [20]: 2% | Brc1cccc(Nc2ncnc3sc4ccccc4c23)c1 [Compound 23, Benzo[4,5]thieno[2,3-d]pyrimidin-4-yl-(3-bromo-phenyl)-amine]
6 | -23 | 3 | 13 | -8 | 1 | -4 | 10 | 23 | 13 | -5 | 11 | 7 | -18 | -7 | 23 | 10 | 97 | 160.7 | 4 | inhibition at 10 µM [20]: 3% | Fc1ccccc1Nc1ncnc2sc3c(c12)CCCC3 [Compound 1, (2-Fluoro-phenyl)-(5,6,7,8-tetrahydro-benzo[4,5]thieno[2,3-d]pyrimidin-4-yl)-amine]
-3 | 0 | -10 | 3 | 2 | -14 | -6 | 0 | -6 | -6 | -10 | 7 | -6 | 2 | 3 | -2 | -20 | 66 | 208.6 | -2 | inhibition at 10 µM [20]: 5% | Clc1cccc(Nc2nc(C3CC3)nc3sc4c(c23)CCCC4)c1 [Compound 9, (3-Chloro-phenyl)-(2-cyclopropyl-5,6,7,8-tetrahydro-benzo[4,5]thieno[2,3-d]pyrimidin-4-yl)-amine]
17 | 4 | 4 | 17 | 0 | -8 | 4 | 17 | -4 | -2 | -27 | 8 | -10 | 23 | -9 | 11 | -36 | 100 | 169 | 1 | IC50 [18]: 2.61 nM; inhibition at 10 µM [20]: 12% | Brc1cccc(Nc2ncnc3sc4c(c23)CCCC4)c1 [Compound 3, (3-Bromo-phenyl)-(5,6,7,8-tetrahydro-benzo[4,5]thieno[2,3-d]pyrimidin-4-yl)-amine]
-3 | 9 | -8 | 4 | 0 | -6 | -5 | 9 | -3 | -8 | -13 | 21 | 0 | 0 | 22 | 9 | -13 | 5 | 185.9 | -11 | inhibition at 10 µM [20]: 5% | Nc1cccc(Nc2nc(C3CC3)nc3sc4c(c23)CCCC4)c1 [Compound 12, N-(2-Cyclopropyl-5,6,7,8-tetrahydro-benzo[4,5]thieno[2,3-d]pyrimidin-4-yl)-benzene-1,3-diamine]
